Experimental data: patent US8258140B2 (Astrazeneca AB, priority 2009, dated 2012)

Target: T1, Androgen Receptor (AR) in the LNCaP prostate carcinoma cell line (Homo sapiens, UniProt P10275, T878A)
T1 construct: cell based immuno-fluorescence assay using the LNCaP prostate epithelial cell line; host or cells: LNCaP clone FGC
T1 sequence (P10275 1-920 T878A): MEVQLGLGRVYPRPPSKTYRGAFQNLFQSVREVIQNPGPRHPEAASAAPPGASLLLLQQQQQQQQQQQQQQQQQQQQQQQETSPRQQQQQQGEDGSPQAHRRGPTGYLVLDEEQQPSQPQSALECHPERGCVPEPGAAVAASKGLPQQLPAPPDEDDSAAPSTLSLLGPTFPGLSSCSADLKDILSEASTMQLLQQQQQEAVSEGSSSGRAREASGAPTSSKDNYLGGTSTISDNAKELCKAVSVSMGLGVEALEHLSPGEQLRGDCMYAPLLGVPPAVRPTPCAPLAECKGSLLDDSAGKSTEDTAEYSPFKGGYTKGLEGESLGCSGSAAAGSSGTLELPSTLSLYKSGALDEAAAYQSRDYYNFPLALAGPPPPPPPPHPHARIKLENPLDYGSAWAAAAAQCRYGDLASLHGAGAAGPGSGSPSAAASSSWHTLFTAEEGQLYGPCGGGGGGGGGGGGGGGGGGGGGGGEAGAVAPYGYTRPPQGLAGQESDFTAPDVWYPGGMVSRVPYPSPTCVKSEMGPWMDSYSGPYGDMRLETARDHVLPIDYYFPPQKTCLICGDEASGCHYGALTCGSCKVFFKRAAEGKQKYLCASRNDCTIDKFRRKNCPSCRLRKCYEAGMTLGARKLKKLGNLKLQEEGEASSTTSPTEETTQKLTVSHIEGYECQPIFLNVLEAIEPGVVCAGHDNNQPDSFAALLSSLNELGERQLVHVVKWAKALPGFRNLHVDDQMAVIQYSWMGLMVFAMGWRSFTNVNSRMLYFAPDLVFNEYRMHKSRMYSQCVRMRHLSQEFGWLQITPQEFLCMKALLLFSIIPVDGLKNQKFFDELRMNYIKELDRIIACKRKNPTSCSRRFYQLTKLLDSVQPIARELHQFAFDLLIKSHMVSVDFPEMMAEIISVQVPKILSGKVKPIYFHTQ
Experiment: LNCaP Androgen Receptor Down-Regulation Cell Assay (immunofluorescence end point)
Type: cell-based
Conditions: LNCaP cells, compound incubation 20-22 hours, concentration giving 50% reduction of the AR signal
Protocol: The ability of compounds to reduce Androgen Receptor (AR) numbers was assessed in a cell based immuno-fluorescence assay using the LNCaP prostate epithelial cell line.
This immunofluorescence end point assay measures the ability of a test compound to down-regulate and reduce measured levels of the AR in the LNCaP prostate carcinoma cell line (LNCaP clone FGC (CRL-1740) obtained from the American Type Culture Collection (ATCC)).
LNCaP cells were cultured in Growth Medium (phenol red free Roswell Park Memorial Institute (RPMI) 1640 (Invitrogen Code no. 11835-063) containing 2 mM L-Glutamine (Invitrogen Code no. 25030-024) and 1% (v/v) Penicillin/Streptomycin (10000 units/ml Penicillin and 10000 μg/ml of Streptomycin utilising penicillin G (sodium salt) and streptomycin sulphate: prepared in normal saline, Invitrogen Code no. 15140122) and 10% (v/v) foetal bovine serum (FBS)) in a 5% CO2 air incubator at 37° C. Cells for assay were harvested from T175 stock flasks by washing once in PBS (phosphate buffered saline, pH 7.4) (Invitrogen Code no. 14190-094) and harvested using 5 mls of 1× Trypsin/ethylaminediaminetetraacetic acid (EDTA) (10× Trypsin-EDTA, 5.0 g/L Trypsin, 2.0 g/L of EDTA.4Na and 8.5 g/L of NaCl, without Phenol Red, Invitrogen Code no. 15400-054) diluted in PBS solution. A 5 ml volume of Growth Medium was added to each flask (as above except that 5% (v/v) charcoal stripped FBS (HyClone Code no. SH30068.03) was included instead of 10% (v/v) FBS). Cells were syringed at least twice using a sterile 18 G×1.5″ (1.2×40 mm) broad gauge needle and cell density was measured using a haemocytometer. Cells were further diluted in Growth Medium plus 5% (v/v) charcoal stripped FBS and seeded at a density of 6.5×10^3 cells per well (in 90 ul) into transparent, black, tissue culture treated 96 well plates (Packard, No. 6005182).
Test data reported herein was generated using two different compounds preparation and dosing methods. In method (1) a 10 mM compound stock solution in 100% (v/v) DMSO was serially diluted in 4-fold steps in 100% (v/v) DMSO using a Thermo Scientific Matrix SerialMate. The diluted compounds were then further diluted 1 in 30 in assay media using a Thermo Scientific Matrix PlateMate and a 10 μl aliquot of this dilution was dosed to cells manually using a multi-channel pipette. In method (2) starting with a 10 mM compound stock solution, the Labcyte Echo 550 was used to generate a compound concentration response set diluted in 30 μl of assay media. The Echo 550 is a liquid handler that uses acoustic technology to perform direct microplate-to-microplate transfers of DMSO compound solutions. The system can be programmed to transfer volumes as low as 2.5 nL in multiple increments between microplates and in so doing generates a serial dilution of compound which is then back-filled to normalise the DMSO concentration across the dilution range. A 10 μl volume of diluted compound is then dosed to cells using a Thermo Scientific Matrix PlateMate.
Plates were incubated overnight at 37° C., 5% CO2. Wells were then dosed with compound prepared by one of the 2 methods above and further incubated for 20-22 hours at 37° C., 5% CO2. Plates were fixed by the addition of 20 μl of 10% (v/v) formaldehyde solution (in PBS) to each well (final formaldehyde conc.=1.67% (v/v)) and left at room temperature for 10 mins. This fixative solution was removed and cells were washed with 250 μl of PBS/0.05% (v/v) Tween 20 (PBST) using an automated plate washer. This process was then repeated twice more.
Immunostaining was performed at room temperature. Cells were permeabilised by the addition of 35 μl of PBS containing 0.5% Tween 20 and incubated for 1 hour at room temperature. Permeabilisation solution was removed and cells were washed with 250 μl of PBST using an automated plate washer. This process was then repeated twice more. […]

Row | IC50 | Compound
1 | 0.18 µM | C[C@@H](COc1ccc(C2CCN(C3=Nn4c(nnc4C(F)(F)F)CC3)CC2)cc1)N1CCN(C)C(=O)C1 (single isomer, unassigned) [Example 55]
2 | 1.3 µM | COCCN(C)C(=O)CCCOc1ccc(C2CCN(C3=Nn4c(nnc4C(F)(F)F)CC3)CC2)cc1 [Example 23, N-(2-methoxyethyl)-N-methyl-4-(4-{1-[3-(trifluoromethyl)-7,8-dihydro[1,2,4]triazolo[4,3-b]pyridazin-6-yl]piperidin-4-yl}phenoxy)butanamide]
3 | 23 µM | CS(=O)(=O)N1CCN(CCOc2ccc(N3CCN(C4=Nn5c(nnc5C(F)(F)F)CC4)CC3)cc2)CC1 [Example 34, 6-[4-(4-{2-[4-(methylsulfonyl)piperazin-1-yl]ethoxy}phenyl)piperazin-1-yl]-3-(trifluoromethyl)-7,8-dihydro[1,2,4]triazolo[4,3-b]pyridazine]
4 | 26 µM | CN(CCO)C(=O)COc1ccc(C2CCN(C3=Nn4c(nnc4C(F)(F)F)CC3)CC2)cc1 [Example 21, N-(2-hydroxyethyl)-N-methyl-2-(4-{1-[3-(trifluoromethyl)-7,8-dihydro[1,2,4]triazolo[4,3-b]pyridazin-6-yl]piperidin-4-yl}phenoxy)acetamide]
5 | 1 µM | Cc1cc(C)n(CCOc2ccc(C3CCN(C4=Nn5c(nnc5C(F)(F)F)CC4)CC3)cc2)n1 [Example 43, 6-(4-{4-[2-(3,5-dimethyl-1H-pyrazol-1-yl)ethoxy]phenyl}piperidin-1-yl)-3-(trifluoromethyl)-7,8-dihydro[1,2,4]triazolo[4,3-b]pyridazine]
6 | 1.4 µM | O=C1CN(CCOc2ccc(C3CCN(C4=Nn5c(nnc5C(F)(F)F)CC4)CC3)cc2)CCN1C1CC1 [Example 47, 1-cyclopropyl-4-[2-(4-{1-[3-(trifluoromethyl)-7,8-dihydro[1,2,4]triazolo[4,3-b]pyridazin-6-yl]piperidin-4-yl}phenoxy)ethyl]piperazin-2-one]
7 | 0.32 µM | CC(=O)N1CCN(CCOc2ccc(C3CCN(C4=Nn5c(nnc5C(F)(F)F)CC4)CC3)cc2)C[C@@H]1C [Example 52, 6-[4-(4-{2-[(3S)-4-acetyl-3-methylpiperazin-1-yl]ethoxy}phenyl)piperidin-1-yl]-3-(trifluoromethyl)-7,8-dihydro[1,2,4]triazolo[4,3-b]pyridazine]
8 | 20 µM | CC(=O)N1CCN(CCOc2ccc(N3CCN(C4=Nn5c(nnc5C(F)(F)F)CC4)CC3)cc2)CC1 [Example 32, 6-(4-{4-[2-(4-acetylpiperazin-1-yl)ethoxy]phenyl}piperazin-1-yl)-3-(trifluoromethyl)-7,8-dihydro[1,2,4]triazolo[4,3-b]pyridazine]
9 | 4.8 µM | CCc1nccn1CCOc1ccc(N2CCN(C3=Nn4c(nnc4C(F)(F)F)CC3)CC2)cc1 [Example 39, 6-(4-{4-[2-(2-ethyl-1H-imidazol-1-yl)ethoxy]phenyl}piperazin-1-yl)-3-(trifluoromethyl)-7,8-dihydro[1,2,4]triazolo[4,3-b]pyridazine]
10 | 0.76 µM | C[C@H]1C(=O)N(C)CCN1CCOc1ccc(C2CCN(C3=Nn4c(nnc4C(F)(F)F)CC3)CC2)cc1 [Example 50, (3S)-1,3-dimethyl-4-[2-(4-{1-[3-(trifluoromethyl)-7,8-dihydro[1,2,4]triazolo[4,3-b]pyridazin-6-yl]piperidin-4-yl}phenoxy)ethyl]piperazin-2-one]
11 | 0.18 µM | CC(=O)N1CCN([C@H](C)COc2ccc(C3CCN(C4=Nn5c(nnc5C(F)(F)F)CC4)CC3)cc2)CC1 (single isomer, unassigned) [Example 53]

The remaining lines, values behind:

Row | Compound | IC50
12 | CC(=O)N1CCN(CCCOc2ccc(N3CCN(C4=Nn5c(nnc5C(F)(F)F)CC4)CC3)cc2)CC1 [Example 29, 6-(4-{4-[3-(4-acetylpiperazin-1-yl)propoxy]phenyl}piperazin-1-yl)-3-(trifluoromethyl)-7,8-dihydro[1,2,4]triazolo[4,3-b]pyridazine] | 10 µM
13 | FC(F)(F)c1ccn(CCOc2ccc(N3CCN(C4=Nn5c(nnc5C(F)(F)F)CC4)CC3)cc2)n1 [Example 40, 3-(trifluoromethyl)-6-[4-(4-{2-[3-(trifluoromethyl)-1H-pyrazol-1-yl]ethoxy}phenyl)piperazin-1-yl]-7,8-dihydro[1,2,4]triazolo[4,3-b]pyridazine] | 1.5 µM
14 | N#Cc1ccc2[nH]cc(CN3CCN(C4=Nn5c(nnc5C(F)(F)F)CC4)CC3)c2c1 [Example 13, 3-({4-[3-(trifluoromethyl)-7,8-dihydro[1,2,4]triazolo[4,3-b]pyridazin-6-yl]piperazin-1-yl}methyl)-1H-indole-5-carbonitrile] | > 11 µM
15 | Fc1ccc(C(F)F)c(CN2CCN(C3=Nn4c(nnc4C(F)(F)F)CC3)CC2)c1 [Example 10, 6-[4-[2-(difluoromethyl)-5-fluorobenzyl]piperazin-1-yl]-3-(trifluoromethyl)-7,8-dihydro[1,2,4]triazolo[4,3-b]pyridazine] | 1 µM
16 | Fc1cccc(CN2CCN(C3=Nn4c(nnc4C(F)(F)F)CC3)CC2)c1 [Example 6, 6-[4-(3-fluorobenzyl)piperazin-1-yl]-3-(trifluoromethyl)-7,8-dihydro[1,2,4]triazolo[4,3-b]pyridazine] | 4 µM
17 | FC(F)(F)c1nnc2n1N=C(N1CC=C(c3c[nH]c4ccccc34)CC1)CC2 [Example 2, 6-[4-(1H-indol-3-yl)-5,6-dihydropyridin-1(2H)-yl]-3-(trifluoromethyl)-7,8-dihydro-[1,2,4]triazolo[4,3-b]pyridazine] | 3.2 µM
18 | Cn1nccc1CCOc1ccc(C2(O)CCN(C3=Nn4c(nnc4C(F)(F)F)CC3)CC2)cc1 [Example 36, 4-{4-[2-(1-methyl-1H-pyrazol-5-yl)ethoxy]phenyl}-1-[3-(trifluoromethyl)-7,8-dihydro[1,2,4]triazolo[4,3-b]pyridazin-6-yl]piperidin-4-ol] | 4.5 µM
19 | 6-(4-{4-[2-(1H-imidazol-1-yl)ethoxy]phenyl}piperazin-1-yl)-3-(trifluoromethyl)-7,8-dihydro[1,2,4]triazolo[4,3-b]pyridazine [Example 38] | 7.8 µM
